# Experimental data: US6846660B2, “Method of making an aldehyde dehydrogenase with gluconobacter” (Roche Vitamins Inc., priority 1997, dated 2005)
# Target: T1, aldehyde dehydrogenase (ADH) (Ketogulonicigenium vulgare, UniProt Q402A8)
# T1 sequence (Q402A8 32-609): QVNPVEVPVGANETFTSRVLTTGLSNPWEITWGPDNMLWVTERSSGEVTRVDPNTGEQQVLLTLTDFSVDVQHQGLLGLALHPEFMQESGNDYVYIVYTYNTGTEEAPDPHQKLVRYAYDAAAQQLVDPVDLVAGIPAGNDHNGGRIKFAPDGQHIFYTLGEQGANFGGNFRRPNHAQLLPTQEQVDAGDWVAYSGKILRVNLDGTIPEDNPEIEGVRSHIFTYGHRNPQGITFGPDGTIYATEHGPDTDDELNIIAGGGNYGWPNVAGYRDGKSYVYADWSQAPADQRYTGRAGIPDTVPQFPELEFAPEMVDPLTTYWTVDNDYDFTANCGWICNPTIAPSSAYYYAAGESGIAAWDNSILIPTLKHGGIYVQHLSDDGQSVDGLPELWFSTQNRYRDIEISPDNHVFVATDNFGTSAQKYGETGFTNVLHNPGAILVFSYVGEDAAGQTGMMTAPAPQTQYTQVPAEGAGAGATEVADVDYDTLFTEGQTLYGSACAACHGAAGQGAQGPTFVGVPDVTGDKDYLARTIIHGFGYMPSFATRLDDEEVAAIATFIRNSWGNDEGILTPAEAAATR
# Experiment: Identification of the oxidation products
# Type: biochemical, Gluconobacter oxydans DSM No. 4025 (FERM BP-3812)
# Settings: not given
# Procedure: The reaction mixture containing the purified enzyme (1.56 mg), L-sorbosone (0.142 mg), PMS (0.008 mg) and PQQ (0.3 mg) in 40μl of the buffer was incubated for 1.5 hours at 30° C. The reaction product was analyzed on thin layer chromatography and HPLC. As a result, the reaction product was identified as 2-KGA in comparison with an authentic sample of 2-KGA.
row,Compound,Product
1,O=C[C@H](O)[C@@H](O)[C@@H](O)[C@H](O)CO [D-Galactose],D-Galactonic acid
2,O=C[C@@H](O)[C@@H](O)[C@H](O)[C@@H](O)CO [L-Gulose],L-Gulonic acid

# Same assay, conditions: products of the oxidation of the substrates of Table 1A
row,Compound,Product
1,O=C[C@@H](O)[C@H](O)[C@H](O)CO [D-Arabinose],D-Arabonic acid
2,O=C[C@H](O)[C@@H](O)[C@H](O)[C@H](O)CO [D-Glucose],D-Gluconate
3,O=CC(=O)[C@@H](O)[C@H](O)[C@H](O)CO [D-Glucosone],2-Keto-D-gluconic acid
4,O=C[C@@H](O)[C@@H](O)[C@H](O)[C@H](O)CO [D-Mannose],D-Mannoic acid
5,O=C[C@H](O)[C@H](O)[C@H](O)CO [D-Ribose],D-Ribonic acid
6,O=C[C@H](O)[C@@H](O)[C@H](O)CO [D-Xylose],D-Xylonic acid
7,O=CC(=O)[C@@H](O)[C@H](O)[C@@H](O)CO [L-Sorbosone],2-KGA

# Same assay, conditions: purified enzyme, PMS, PQQ, 1.5 hours at 30 °C; thin layer chromatography and HPLC
row,Compound,reaction product identified
1,O=CC(=O)[C@@H](O)[C@H](O)[C@@H](O)CO [L-Sorbosone],2-KGA

# Target: T1, aldehyde dehydrogenase (ADH)
# Experiment: Electron acceptor suitability for oxidation of L-sorbosone to 2-KGA
# Type: biochemical, Gluconobacter oxydans DSM No. 4025 (FERM BP-3812)
# Settings: not given
# Excerpt: This was affirmed by the failure of the enzyme to convert L-sorbosone to 2-KGA using oxygen as a possible electron acceptor. Furthermore, no oxygen consumption was detected in the reaction mixture as detected with a dissolved oxygen probe. […] However, other conventional electron acceptors can be utilized in conjunction with the enzyme of this invention. DCIP, PMS, ferricyanide and cytochrome c are preferred electron acceptors. There is no minimum amount of electron acceptor which must be present for at least some of the aldehyde substrate to be converted to its corresponding acid. However, the amount of substrate which can be oxidized depends on the amount of the particular electron acceptor and its electron accepting characteristics.
row,Compound,suitability as electron acceptor
1,O=O [oxygen],does not work

# Same assay, conditions: oxidation of L-sorbosone to 2-KGA by purified ADH
row,Compound,suitability as electron acceptor
1,"O=C1C=CC(=Nc2cc(Cl)c(O)c(Cl)c2)C=C1 [DCIP, 2,6-dichlorophenolindophenol]",oxidizes L-sorbosone to 2-KGA in the presence of electron acceptors
2,"COS(=O)(=O)[O-].C[n+]1c2ccccc2nc2ccccc21 [PMS, phenazine methosulfate]",oxidizes L-sorbosone to 2-KGA in the presence of electron acceptors
3,cytochrome c,oxidizes L-sorbosone to 2-KGA in the presence of electron acceptors
4,nicotinamide adenine dinucleotide phosphate [NADP],not suitable electron acceptors

# Target: T1, aldehyde dehydrogenase (ADH)
# Experiment: not given
# Type: biochemical, Gluconobacter oxydans DSM No. 4025 (FERM BP-3812)
# Settings: not given
# Procedure: The reaction was started at 25° C. with L-sorbosone, and the enzyme activity was measured as the initial reduction rate of DCIP at 600 nm. […] The extinction coefficience of DCIP at pH 8.0 was taken as 15 mM^−1. A reference cuvette contained all the above constituents except L-sorbosone.
# The effects of metal ions and inhibitors on the activity of the enzyme were examined by measuring the activity using the same assay method as described under 1) above. Each compound solution was stirred into the basal reaction mixture and the reaction was started with the addition of the enzyme.
Compound,Relative activity [%],stimulation of enzyme activity,effect on enzyme activity (in words)
O.O.[Ca+2].[Cl-].[Cl-] [CaCl2.2H2O],204.5,about 2 fold,
O.O.O.O.O.O.[Cl-].[Cl-].[Co+2] [CoCl2.6H2O],76.0,,inhibited the enzyme activity
O=S(=O)([O-])[O-].[Cu+2] [CuSO4],0.0,,inhibited the enzyme activity
O=S(=O)([O-])[O-].O=S(=O)([O-])[O-].O=S(=O)([O-])[O-].[Fe+3].[Fe+3] [Fe2(SO4)3.xH2O],58.9,,inhibited the enzyme activity
[Cl-].[Cl-].[Mg+2] [MgCl2],90.3,,
O=C(O)CI [Monoiodoacetate],52.2,,
[F-].[Na+] [NaF],86.7,,
[N-]=[N+]=[N-].[Na+] [NaN3],104.6,,
O.O.O.O.O.O.O=S(=O)([O-])[O-].[Ni+2] [NiSO4.6H2O],74.9,,inhibited the enzyme activity
[Cl][Ti]([Cl])([Cl])[Cl] [TiCl4],128.0,,
[Cl-].[Cl-].[Zn+2] [ZnCl2],40.3,,inhibited the enzyme activity

# Same assay, conditions: compound at 1.0 mM; None = 100.0
row,Compound,Relative activity [%]
1,CCN1C(=O)C=CC1=O [N-Ethylmaleimide],110.8

# Target: T1, aldehyde dehydrogenase (ADH)
# Experiment: Prosthetic group: PQQ requirement of the purified enzyme
# Type: biochemical, Gluconobacter oxydans DSM No. 4025 (FERM BP-3812)
# Settings: added to basal reaction mixture without PQQ
row,Compound,effect of cofactor addition on enzyme activity
1,"O=C(O)c1cc(C(=O)O)c2c(n1)C(=O)C(=O)c1cc(C(=O)O)[nH]c1-2 [PQQ, pyrroloquinoline quinone]",restored
